Paper PMC10247784, “Physiological activation of human and mouse bitter taste receptors by bile acids” (Communications Biology, 2023)

Target: T1, mouse Tas2r105 (Mus musculus, UniProt Q9JKT4)
T1 construct: expressed in transfected cells; host or cells: HEK293T-Gα16gust44
T1 sequence (Q9JKT4 1-300): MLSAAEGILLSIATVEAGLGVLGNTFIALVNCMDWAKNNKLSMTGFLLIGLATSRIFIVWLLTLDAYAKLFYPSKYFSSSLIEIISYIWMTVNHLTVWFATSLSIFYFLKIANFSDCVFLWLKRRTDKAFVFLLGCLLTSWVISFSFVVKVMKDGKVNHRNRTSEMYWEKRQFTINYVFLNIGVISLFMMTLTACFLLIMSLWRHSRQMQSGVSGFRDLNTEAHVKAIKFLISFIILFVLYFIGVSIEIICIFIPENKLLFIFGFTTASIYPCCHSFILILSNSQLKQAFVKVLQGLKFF
Experiment: Calcium imaging assay (FLIPR), HEK293T-Gα16gust44 cells transfected with mouse Tas2r105
Type: cell-based
Description: This set of bile acids was chosen because of their commercial availability in high purities, their diversity within the class of bile acids and their previous detection and quantitation in human blood. Stock solutions were prepared in DMSO.
As basal growth medium for the HEK293T-Gα16gust44 cell line[17],[59] served Dulbecco’s modified eagle medium (DMEM) (Thermo Fisher Scientific, Darmstadt, Germany) supplemented with 10 % fetal bovine serum (Sigma-Aldrich, Steinheim, Germany), 2 mM L-glutamine (Sigma-Aldrich, Steinheim, Germany), 100 units/ml penicillin (Sigma Aldrich, Steinheim, Germany) and 100 µg/ml streptomycin (Sigma Aldrich, Steinheim, Germany). Growth conditions were 37 °C, 5 % CO2 and saturated air-humidity[60].
HEK293T-Gα16gust44 cells were seeded on poly-D-lysine (10 µg/ml) coated 96-well plates to reach a confluence of 40-60 % the next day. For transient transfection 150 ng of plasmid DNA containing the receptor of interest and 0.3 µl lipofectamine 2000 (Thermo Fisher Scientific, Darmstadt, Germany) per well were used and transfection took place according to the manual of lipofectamine 2000. […] The empty vector DNA (mock) was transfected as negative control[14],[41].
Cells were loaded using the calcium-sensitive fluorescent dye Fluo-4-AM (Abcam, Cambridge, Great Britain) in the presence of 2.5 mM probenecid (Sigma-Aldrich, Steinheim, Germany) the day after transfection[13],[41]. 1 h after loading, cells were washed with C1 buffer using a BioTek Cell Washer, incubated in the dark for half an hour and washed again. For automated agonist application and measurement of fluorescence changes, a FLIPR^TETRA device (Molecular Devices, San José, United States) was used. Viability of cells was tested by application of 100 nM Somatostatin 14 (Bachem, Bubendorf, Switzerland)[42].
Measured data were negative control corrected by subtracting the signal of the mock-transfected cells and exported to Microsoft Excel using the FLIPR software ScreenWorks 4.2. In Microsoft Excel software, standardization of maximum fluorescence intensities to the basal fluorescence and normalization to the buffer-only control was done to calculate the relative fluorescence changes (ΔF/F).
Initial screening experiments performed in duplicate wells were confirmed by at least one replication and representative traces were selected for display. All dose-response relationships were determined by three independent experiments (biological replicates) performed in duplicates (technical replicates). Threshold concentrations, defined as lowest substance concentrations leading to statistically significant elevated fluorescence changes in receptor-transfected cells compared with empty vector-transfected cells, were determined using SigmaPlot with Student’s t-test to evaluate statistical significance (p < 0.01).

C[C@H](CCC(=O)O)[C@H]1CC[C@H]2[C@@H]3[C@H](O)C[C@@H]4C[C@H](O)CC[C@]4(C)[C@H]3C[C@H](O)[C@]12C [Cholic Acid, cholic acid] was tested, and the RLU (Time 0 s) was 0 RLU, the RLU (Time 2 s) was 1.777 RLU and the RLU (Time 4 s) was 7.834 RLU. The RLU (Time 6 s) was 2.675 RLU, the RLU (Time 8 s) was 9.829 RLU and the RLU (Time 12 s) was -3.285 RLU. For the same molecule, the RLU (Time 14 s) was -7.0734 RLU, the RLU (Time 16 s) was 15 RLU and the RLU (Time 18 s) was 44.4226 RLU. For the same molecule, the RLU (Time 18.781 s) was 21.6772 RLU, the RLU (Time 20.781 s) was 9.429 RLU and the RLU (Time 22.781 s) was 39.5966 RLU. The RLU (Time 24.781 s) was 10.8272 RLU, the RLU (Time 26.781 s) was 50.2337 RLU and the RLU (Time 28.781 s) was 59.2009 RLU. For the same molecule, the RLU (Time 30.781 s) was 49.6279 RLU, the RLU (Time 32.781 s) was 86.2126 RLU and the RLU (Time 34.781 s) was 65.8416 RLU. It also gave an RLU (Time 36.781 s) of 100.025 RLU, an RLU (Time 38.781 s) of 89.1237 RLU and an RLU (Time 40.781 s) of 115.541 RLU. The RLU (Time 42.781 s) was 131.095 RLU, the RLU (Time 44.781 s) was 139.548 RLU and the RLU (Time 46.781 s) was 164.231 RLU. The RLU (Time 48.781 s) was 193.51 RLU, the RLU (Time 50.781 s) was 193.303 RLU and the RLU (Time 52.781 s) was 217.91 RLU. For the same molecule, the RLU (Time 54.781 s) was 257.63 RLU, the RLU (Time 56.781 s) was 273.677 RLU and the RLU (Time 58.781 s) was 284.724 RLU. For the same molecule, the RLU (Time 60.781 s) was 322.244 RLU, the RLU (Time 62.781 s) was 314.427 RLU and the RLU (Time 64.781 s) was 342.91 RLU. The RLU (Time 66.781 s) was 375.793 RLU, the RLU (Time 68.781 s) was 398.01 RLU and the RLU (Time 70.781 s) was 424.457 RLU. The RLU (Time 72.781 s) was 449.971 RLU, the RLU (Time 74.781 s) was 470.44 RLU and the RLU (Time 76.781 s) was 487.87 RLU. For the same molecule, the RLU (Time 78.781 s) was 480.774 RLU, the RLU (Time 80.781 s) was 513.812 RLU and the RLU (Time 82.781 s) was 513.576 RLU. It also gave an RLU (Time 84.781 s) of 531.991 RLU, an RLU (Time 86.781 s) of 549.947 RLU and an RLU (Time 88.781 s) of 553.294 RLU. It also gave an RLU (Time 90.781 s) of 575.612 RLU, an RLU (Time 92.781 s) of 557.955 RLU and an RLU (Time 94.781 s) of 575.485 RLU. It also gave an RLU (Time 96.781 s) of 548.118 RLU, an RLU (Time 98.781 s) of 585.897 RLU and an RLU (Time 100.781 s) of 576.152 RLU. It also gave an RLU (Time 102.781 s) of 586.681 RLU, an RLU (Time 104.781 s) of 569.701 RLU and an RLU (Time 106.781 s) of 551.409 RLU. The RLU (Time 108.781 s) was 564.279 RLU, the RLU (Time 110.781 s) was 542.028 RLU and the RLU (Time 112.781 s) was 544.652 RLU. It also gave an RLU (Time 114.781 s) of 548.979 RLU, an RLU (Time 116.781 s) of 550.607 RLU and an RLU (Time 118.781 s) of 555.391 RLU. The RLU (Time 120.781 s) was 575.811 RLU, the RLU (Time 122.781 s) was 538.707 RLU and the RLU (Time 124.781 s) was 581.753 RLU. For the same molecule, the RLU (Time 126.781 s) was 520.313 RLU, the RLU (Time 128.781 s) was 519.484 RLU and the RLU (Time 130.781 s) was 535.938 RLU. The RLU (Time 132.781 s) was 507.19 RLU, the RLU (Time 134.781 s) was 533.269 RLU and the RLU (Time 136.781 s) was 500.116 RLU. It also gave an RLU (Time 137.578 s) of 523.788 RLU, an RLU (Time 143.578 s) of 484.404 RLU and an RLU (Time 149.578 s) of 476.256 RLU. It also gave an RLU (Time 155.578 s) of 501.067 RLU, an RLU (Time 161.578 s) of 504.009 RLU and an RLU (Time 167.578 s) of 489.395 RLU. It also gave an RLU (Time 173.578 s) of 450.925 RLU, an RLU (Time 179.578 s) of 464.442 RLU and an RLU (Time 185.578 s) of 417.045 RLU. For the same molecule, the RLU (Time 191.578 s) was 421.394 RLU, the RLU (Time 197.578 s) was 391.24 RLU and the RLU (Time 203.578 s) was 344.694 RLU. The RLU (Time 209.578 s) was 358.293 RLU, the RLU (Time 215.578 s) was 343.137 RLU and the RLU (Time 221.578 s) was 329.589 RLU. It also gave an RLU (Time 227.578 s) of 339.83 RLU, an RLU (Time 233.578 s) of 325.692 RLU and an RLU (Time 239.578 s) of 315.743 RLU. It also gave an RLU (Time 245.578 s) of 313.71 RLU, an RLU (Time 293.578 s) of 197.324 RLU and an RLU (Time 299.578 s) of 152.865 RLU. For the same molecule, the RLU (Time 305.578 s) was 156.643 RLU, the RLU (Time 311.578 s) was 134.046 RLU and the RLU (Time 317.578 s) was 124.601 RLU. For the same molecule, the RLU (Time 323.578 s) was 131.88 RLU, the RLU (Time 329.578 s) was 133.734 RLU and the RLU (Time 335.578 s) was 174.038 RLU. It also gave an RLU (Time 341.578 s) of 165.309 RLU, an RLU (Time 347.578 s) of 173.556 RLU and an RLU (Time 353.578 s) of 191.675 RLU. For the same molecule, the RLU (Time 359.578 s) was 226.638 RLU and the “Activation threshold concentration Tas2r105” value (p < 0.01 vs empty vector) was 300 µM.
